How the values were obtained:
[1] = Inhibitory concentration againstHuman cell lung carcinoma cell line NCI-H69/LX4; n=3; format: functional, cell-based, Homo sapiens
[2] = system: CAKI-1; experiment: Inhibitory concentration againstHuman Caki-1 Renal CellCarcinoma Cell Lines (CD70+) at 4th hour; n=1; format: functional, cell-based; conditions: Homo sapiens
[3] = system: CAKI-1; experiment: Inhibitory concentration againstHuman Caki-1 Renal CellCarcinoma Cell Lines (CD70+) at 96th hour; n=1; format: functional, cell-based; conditions: Homo sapiens
[4] = system: NCI-H69; experiment: Inhibitory concentration againstHuman cell lung carcinoma cell line NCI-H69; n=3; format: functional, cell-based, Homo sapiens
[5] = Inhibitory concentration againstHuman Karpas 299 Anaplastic Large Cell Lymphoma (CD30+) at 4th hour; n=1; format: functional, Homo sapiens
[6] = Inhibitory concentration againstHuman Karpas 299 Anaplastic Large Cell Lymphoma (CD30+) at 96th hour; n=9; format: functional, Homo sapiens
[7] = Inhibitory concentration againstHuman Karpas 299 Anaplastic Large Cell Lymphoma (CD30+) at 96th hour; n=39; format: functional, Homo sapiens
[8] = system: CAKI-1; experiment: Inhibitory concentration againstHuman Caki-1 Renal CellCarcinoma Cell Lines (CD70+) at 96th hour; n=14; format: functional, cell-based; conditions: Homo sapiens
[9] = Inhibitory concentration againstHuman Karpas 299 Anaplastic Large Cell Lymphoma (CD30+) at 96th hour; n=1; format: functional, Homo sapiens

| Molecule | IC50 [1] [nM] | IC50 [2] [nM] | IC50 [3] [nM] | IC50 ([4]; Homo sapiens, NCI-H69) [nM] | IC50 [5] [nM] | further results |
| --- | --- | --- | --- | --- | --- | --- |
| COc1ccc(/C=C/C(=O)N2CC(CCl)c3c2cc(N)c2ccccc32)cc1 (stereo not given) | 2.87 | 0.59 | 0.68 | 0.87 | 0.34 | IC50 [6]: 1.17 nM |
| COc1cccc2c1C(=O)c1c(O)c3c(c(O)c1C2=O)C[C@@](O)(C(=O)CO)C[C@@H]3O[C@H]1C[C@H](N)[C@H](O)[C@H](C)O1 [DOXORUBICIN] | 1800 |  |  | 11.3 |  |  |
| CO[C@@]12[C@H](COC(N)=O)C3=C(C(=O)C(C)=C(N)C3=O)N1C[C@@H]1N[C@@H]12 [MITOMYCIN] |  | 251 |  |  | 525 | IC50 [7]: 133 nM; IC50 [8]: 40 nM |
| COc1cc2c(c(OC)c1OC)NC(C(=O)N1CC(CCl)c3c1cc(O)c1ncccc31)C2 (stereo not given) |  | 0.55 | 0.45 |  | 0.28 | IC50 [9]: 0.18 nM |
| COc1ccc(/C=C/C(=O)N2CC(CCl)c3c2cc(NC(=O)C(CCCCN)NC(=O)C(NC(=O)CCOCCOCCOCCOCCNC(=O)CBr)C(C)C)c2ccccc32)cc1 (stereo not given) | 20.7 |  |  | 13.4 |  |  |
| CISPLATIN | 2820 |  |  |  |  | IC50 ([4]; nci-h69): 683 nM |
